{"source": "Sander's compilation of Henry's law constants (doi:10.1021/es8005783)", "origin": "cited, not measured here", "assay": "Henry solubility constant Hcp at 298.15 K (mol/(m3 Pa))", "conditions": "reference: Hilal et al. (2008); cited value"}
{"smiles": "CC(C)N", "note": "[2-propanamine]", "values": [{"measurement": "Henry solubility constant Hcp", "value": 0.22}]}
{"smiles": "C=C(C)C(=O)OCC", "note": "[2-methyl-2-propenoic acid, ethyl ester]", "values": [{"measurement": "Henry solubility constant Hcp", "value": 0.016}]}
{"smiles": "CCCN(CCC)CCC", "note": "[N,N-dipropyl-1-propanamine]", "values": [{"measurement": "Henry solubility constant Hcp", "value": 0.026}]}
{"smiles": "ClC1=C(Cl)[C@]2(Cl)[C@H]3[C@H]([C@@H]4C=C[C@H]3C4)[C@@]1(Cl)C2(Cl)Cl", "note": "[aldrin]", "values": [{"measurement": "Henry solubility constant Hcp", "value": 0.02}]}
{"smiles": "ClC1=C(Cl)[C@]2(Cl)[C@@H]3[C@@H]4C[C@@H]([C@H]5O[C@@H]45)[C@@H]3[C@@]1(Cl)C2(Cl)Cl", "note": "[dieldrin]", "values": [{"measurement": "Henry solubility constant Hcp", "value": 0.17}]}
{"smiles": "CCC(C)N", "note": "(stereo not drawn) [2-butanamine]", "values": [{"measurement": "Henry solubility constant Hcp", "value": 0.065}]}
{"smiles": "CC(C)CN", "note": "[2-methyl-1-propanamine]", "values": [{"measurement": "Henry solubility constant Hcp", "value": 0.72}]}
{"smiles": "ClC=CCCl", "note": "[1,3-dichloropropene]", "values": [{"measurement": "Henry solubility constant Hcp", "value": 0.0058}]}
{"smiles": "Cc1c(COC(=O)[C@@H]2[C@H](/C=C(\\Cl)C(F)(F)F)C2(C)C)cccc1-c1ccccc1", "note": "[bifenthrin]", "values": [{"measurement": "Henry solubility constant Hcp", "value": 9.9}]}
{"smiles": "O=[N+]([O-])c1ccccc1", "note": "[nitrobenzene]", "values": [{"measurement": "Henry solubility constant Hcp", "value": 0.42}]}
{"smiles": "C1=CCC=CC1", "note": "[1,4-cyclohexadiene]", "values": [{"measurement": "Henry solubility constant Hcp", "value": 0.001}]}
{"smiles": "BrC(Br)(Br)Br", "note": "[tetrabromomethane]", "values": [{"measurement": "Henry solubility constant Hcp", "value": 0.02}]}
{"smiles": "FC(F)(Cl)Cl", "note": "[dichlorodifluoromethane]", "values": [{"measurement": "Henry solubility constant Hcp", "value": "3.6e-05"}]}
{"smiles": "CCc1ccccc1CC", "note": "[1,2-diethylbenzene]", "values": [{"measurement": "Henry solubility constant Hcp", "value": 0.0012}]}
{"smiles": "CCCC(C)C", "note": "[2-methylpentane]", "values": [{"measurement": "Henry solubility constant Hcp", "value": "6.2e-06"}]}
{"smiles": "ClC1=C(Cl)C2(Cl)C3C4OC4C(Cl)C3C1(Cl)C2(Cl)Cl", "note": "(stereo not drawn) [heptachlorepoxide]", "values": [{"measurement": "Henry solubility constant Hcp", "value": 0.54}]}
{"smiles": "FC(F)(F)C(F)(Cl)Cl", "note": "[1,1-dichlorotetrafluoroethane]", "values": [{"measurement": "Henry solubility constant Hcp", "value": "7.5e-06"}]}
{"smiles": "ClC(Cl)Br", "note": "[bromodichloromethane]", "values": [{"measurement": "Henry solubility constant Hcp", "value": 0.0077}]}
{"smiles": "CCCCCCCCC(=O)O", "note": "[nonanoic acid]", "values": [{"measurement": "Henry solubility constant Hcp", "value": 6.9}]}
{"smiles": "COCC(C)O", "note": "(stereo not drawn) [1-methoxy-2-propanol]", "values": [{"measurement": "Henry solubility constant Hcp", "value": 11}]}
{"smiles": "CCc1cccc(CC)c1", "note": "[1,3-diethylbenzene]", "values": [{"measurement": "Henry solubility constant Hcp", "value": 0.0038}]}
{"smiles": "ClC(Cl)=C(Cl)C(Cl)=C(Cl)Cl", "note": "[hexachlorobutadiene]", "values": [{"measurement": "Henry solubility constant Hcp", "value": 0.00097}]}
{"smiles": "FC(F)(F)Cl", "note": "[chlorotrifluoromethane]", "values": [{"measurement": "Henry solubility constant Hcp", "value": "7.2e-06"}]}
